The values below come from PMC6597268 (Biochemistry, 2019).

The Km is the concentration of substrate that gives half-maximal velocity.

Assay [1] concerns the target T1, MitE (Streptomyces lavendulae, UniProt Q9X5R7).
T1 sequence (Q9X5R7 1-707): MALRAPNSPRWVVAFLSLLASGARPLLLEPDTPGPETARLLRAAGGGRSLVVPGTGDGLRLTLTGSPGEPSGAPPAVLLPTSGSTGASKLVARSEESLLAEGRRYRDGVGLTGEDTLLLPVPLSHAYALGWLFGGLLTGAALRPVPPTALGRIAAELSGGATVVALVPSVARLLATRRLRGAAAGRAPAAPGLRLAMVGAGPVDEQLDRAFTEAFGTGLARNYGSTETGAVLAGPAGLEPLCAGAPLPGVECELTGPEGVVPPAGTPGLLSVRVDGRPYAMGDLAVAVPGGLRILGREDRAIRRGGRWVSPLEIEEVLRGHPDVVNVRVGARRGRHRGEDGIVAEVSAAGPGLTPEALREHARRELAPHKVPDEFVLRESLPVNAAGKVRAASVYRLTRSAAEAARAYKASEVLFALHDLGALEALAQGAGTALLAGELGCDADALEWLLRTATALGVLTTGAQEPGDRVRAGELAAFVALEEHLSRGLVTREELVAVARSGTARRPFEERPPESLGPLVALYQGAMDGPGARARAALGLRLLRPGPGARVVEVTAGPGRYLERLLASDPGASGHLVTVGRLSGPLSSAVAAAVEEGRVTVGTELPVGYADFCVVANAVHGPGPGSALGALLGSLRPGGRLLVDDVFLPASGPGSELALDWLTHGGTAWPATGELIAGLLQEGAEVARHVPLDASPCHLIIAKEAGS
T1 sequence (Q9X5S0 1-93 partner): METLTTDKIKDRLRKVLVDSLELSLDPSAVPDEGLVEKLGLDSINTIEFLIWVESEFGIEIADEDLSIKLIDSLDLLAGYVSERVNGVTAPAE
The experiment in a line: HPLC of AHBA released from MmcB by KOH or cysteamine. It counts as biochemical. Conditions: holo-MmcB as acceptor.

Assay [2] addresses MitB (Streptomyces lavendulae, UniProt Q9WW09). The assay can be described thus: anion exchange HPLC steady-state kinetics, Michaelis-Menten fit. The assay is classed as biochemical. To be noted: pseudo-first order.

The structures appear in SMILES notation.

As for `Nc1ncnc2c1ncn2[C@@H]1O[C@H](COP(=O)(O)OP(=O)(O)OP(=O)(O)O)[C@@H](O)[C@H]1O` [ATP], in assay [1] (AHBA), the “HPLC of AHBA released from MmcB by KOH or cysteamine” value is “we investigated the ability of MitE to load AHBA to holo-MmcB in the presence of ATP”.

As to `CC(=O)NCCSC(=O)c1cc(N)cc(O)c1` [SNAc-AHBA], in assay [2] (2 mM UDP-GlcNAc as donor), the Km stood at 10 ± 3.3 mM.

`Nc1cc(O)cc(C(=O)O)c1` [AHBA]: the “HPLC of AHBA released from MmcB by KOH or cysteamine” value in assay [1] (ATP) is reported as “These evidences in combination suggest that MitE catalyzes the loading of AHBA onto holo-MmcB”.

Turning to `CC(=O)N[C@H]1[C@@H](OP(=O)(O)OP(=O)(O)OC[C@H]2O[C@@H](n3ccc(=O)[nH]c3=O)[C@H](O)[C@@H]2O)O[C@H](CO)[C@@H](O)[C@@H]1O` [UDP-GlcNAc], the Km in assay [2] (2 mM SNAc-AHBA (unsaturating) as acceptor) was determined as 0.94 ± 0.15 mM.
